Assay results: patent US10144742B2 (Millennium Pharmaceuticals, Inc., priority 2014, dated 2018)

What was measured:
[1] = biological target: hNAMPT protein (Homo sapiens (Human), UniProt P43490); assay: NAMPT enzyme assay (TR-FRET/HTRF, BodiPY ligand, anti 6His-Tb); type: binding; settings: for inhibition at 1 µM: NAMPT inhibition at compound concentration 1 μM, read-out: Percent Inhibition; for IC50: NAMPT inhibition, IC50 range class, read-out: IC50
Method in brief: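 TR-FRET binding assay in which His-tagged human NAMPT with anti-6His-Tb is displaced by compound from a BodiPY ligand, incubated 1 h at rt in the dark. Excitation was at 320 nm, with the 520/486 nm emission ratio read. IC50 was fitted from inhibition relative to DMSO controls.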

[2] = tested on: PC3 cells; assay: PC3 growth inhibition (Cell-titer glo, 72 hours); type: cell-based; settings: Homo sapiens, PC-3; compound concentration 1.667 μM; PC3 cells, 72 hours, Cell-titer glo; read-out: Percent Inhibition (PC3 growth inhibition)
Method in brief: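 PC3 cells in RPMI1640 seeded overnight at 37 °C, 5% CO2, then exposed to compound diluted in AIM serum-free medium for 72 h. Viability by CellTiter-Glo luminescence vs DMSO controls; single-concentration % remaining viability (1 μM or 1.667 μM), or GI50/LD50 from curves.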

[3] = tested on: activated T cells; settings: cited from earlier work
[4] = tested on: collagen-induced arthritis; settings: cited from earlier work
[5] = tested on: experimental autoimmune encephalomyelitis (EAE); settings: model of T-cell mediated autoimmune disorders; cited from earlier work

Chain of hNAMPT protein (P43490 whole entry): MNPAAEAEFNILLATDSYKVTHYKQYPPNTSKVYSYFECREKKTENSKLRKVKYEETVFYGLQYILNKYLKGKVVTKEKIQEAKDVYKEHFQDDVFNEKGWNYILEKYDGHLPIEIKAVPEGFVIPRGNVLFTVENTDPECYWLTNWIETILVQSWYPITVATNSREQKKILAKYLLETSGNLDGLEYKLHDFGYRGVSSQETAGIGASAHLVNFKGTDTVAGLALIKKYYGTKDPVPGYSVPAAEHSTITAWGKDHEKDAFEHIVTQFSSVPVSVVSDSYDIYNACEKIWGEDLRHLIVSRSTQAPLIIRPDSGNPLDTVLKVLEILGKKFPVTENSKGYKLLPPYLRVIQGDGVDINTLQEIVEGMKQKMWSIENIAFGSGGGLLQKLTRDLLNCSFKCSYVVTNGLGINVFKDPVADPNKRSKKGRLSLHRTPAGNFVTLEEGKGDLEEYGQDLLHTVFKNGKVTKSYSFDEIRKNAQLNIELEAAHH

Compound	inhibition at 1 µM [1] [%]	IC50 [1] [nM]	inhibition at 1.667 µM [2] [%]	effect on activated T cells [3]	efficacy in animal models of arthritis [4]	effect on manifestations of EAE [5]
CN1CCCC1CCOc1nc2ccc(C(=O)NCCCc3ncc[nH]3)cc2nc1-c1ccc(F)cc1 (stereo not drawn) [Compound I-505, 3-(4-fluorophenyl)-N-[3-(1H-imidazol-2-yl)propyl]-2-[2-(1-methylpyrrolidin-2-yl)ethoxy]quinoxaline-6-carboxamide]	> 99	< 100	3	–	–	–
CC(C)Oc1nc2ccc(C(=O)NCc3cn4cccnc4n3)cc2nc1-c1ccc(F)cc1 [Compound I-506, 3-(4-Fluorophenyl)-N-(imidazo[1,2-a]pyrimidin-2-ylmethyl)-2-isopropoxyquinoxaline-6-carboxamide]	78	100 to 500	> 99	–	–	–
Cc1ccc(F)c(-c2nc3cc(C(=O)NCCCc4ncc[nH]4)ccc3nc2-c2ccc(F)cc2)c1 [Compound I-507, 3-(2-fluoro-5-methylphenyl)-2-(4-fluorophenyl)-N-[3-(1H-imidazol-2-yl)propyl]quinoxaline-6-carboxamide]	97	< 100	2	–	–	–
O=C(NCCCc1cn[nH]c1)c1ccc2nc(-c3ccc(F)cc3)c(-c3ccc(F)cc3)nc2c1 [Compound I-508, 2,3-bis(4-fluorophenyl)-N-[3-(1H-pyrazol-4-yl)propyl]quinoxaline-6-carboxamide]	73	100 to 500	3	–	–	–
CN(C)CCOc1nc2ccc(C(=O)NCCCc3ncc[nH]3)cc2nc1-c1ccc(F)cc1 [Compound I-509, 2-[2-(dimethylamino)ethoxy]-3-(4-fluorophenyl)-N-[3-(1H-imidazol-2-yl)propyl]quinoxaline-6-carboxamide]	94	< 100	3	–	–	–
CN1CCCC(COc2nc3ccc(C(=O)NCCCc4ncc[nH]4)cc3nc2-c2ccc(F)cc2)C1 (stereo not drawn) [Compound I-510, 3-(4-fluorophenyl)-N-[3-(1H-imidazol-2-yl)propyl]-2-[(1-methylpiperidin-3-yl)methoxy]quinoxaline-6-carboxamide]	98	< 100	2	–	–	–
COc1cccc(-c2nc3cc(C(=O)NCCCc4ncc[nH]4)ccc3nc2OC(C)C)c1 [Compound I-511, N-[3-(1H-imidazol-2-yl)propyl]-2-isopropoxy-3-(3-methoxyphenyl)quinoxaline-6-carboxamide]	> 99	< 100	2	–	–	–
COc1cc(F)cc(-c2nc3cc(C(=O)NCCCc4ncc[nH]4)ccc3nc2-c2ccc(F)cc2)c1 [Compound I-512, 3-(3-fluoro-5-methoxyphenyl)-2-(4-fluorophenyl)-N-[3-(1H-imidazol-2-yl)propyl]quinoxaline-6-carboxamide]	92	< 100	2	–	–	–
CN1CCC(COc2nc3ccc(C(=O)NCCCc4ncc[nH]4)cc3nc2-c2ccc(F)cc2)C1 (stereo not drawn) [Compound I-513, 3-(4-fluorophenyl)-N-[3-(1H-imidazol-2-yl)propyl]-2-[(1-methylpyrrolidin-3-yl)methoxy]quinoxaline-6-carboxamide]	99	< 100	3	–	–	–
O=C(NCCCc1ncc[nH]1)c1ccc2nc(OC3CCNCC3)c(-c3ccc(F)cc3)nc2c1 [Compound I-514, 3-(4-fluorophenyl)-N-[3-(1H-imidazol-2-yl)propyl]-2-(piperidin-4-yloxy)quinoxaline-6-carboxamide]	97	< 100	3	–	–	–
COc1cc(-c2nc3cc(C(=O)NCCCc4nnc[nH]4)ccc3nc2-c2ccc(F)cc2)c(F)cn1 [Compound I-515, 3-(5-fluoro-2-methoxypyridin-4-yl)-2-(4-fluorophenyl)-N-[3-(4H-1,2,4-triazol-3-yl)propyl]quinoxaline-6-carboxamide]	75	100 to 500	1	–	–	–
COc1cc(-c2nc3cc(C(=O)NCc4nc5cnccc5[nH]4)ccc3nc2-c2ccc(F)cc2)c(F)cn1 [Compound I-516, 3-(5-fluoro-2-methoxypyridin-4-yl)-2-(4-fluorophenyl)-N-(1H-imidazo[4,5-c]pyridin-2-ylmethyl)quinoxaline-6-carboxamide]	93	< 100	1	–	–	–
CCOc1cc(-c2nc3cc(C(=O)NCCCc4ncc[nH]4)ccc3nc2-c2ccc(F)cc2)c(F)cn1 [Compound I-517, 3-(2-ethoxy-5-fluoropyridin-4-yl)-2-(4-fluorophenyl)-N-[3-(1H-imidazol-2-yl)propyl]quinoxaline-6-carboxamide]	76	100 to 500	1	–	–	–
CC(C)Oc1cc(-c2nc3cc(C(=O)NCCCc4ncc[nH]4)ccc3nc2-c2ccc(F)cc2)c(F)cn1 [Compound I-518, 3-(5-fluoro-2-isopropoxypyridin-4-yl)-2-(4-fluorophenyl)-N-[3-(1H-imidazol-2-yl)propyl]quinoxaline-6-carboxamide]	86	100 to 500	1	–	–	–
COc1cc(-c2nc3cc(C(=O)NCCCc4nccn4C)ccc3nc2-c2ccc(F)cc2)c(F)cn1 [Compound I-519, 3-(5-fluoro-2-methoxypyridin-4-yl)-2-(4-fluorophenyl)-N-[3-(1-methyl-1H-imidazol-2-yl)propyl]quinoxaline-6-carboxamide]	97	< 100	99	–	–	–
O=C(NCCCc1nnc[nH]1)c1ccc2nc(-c3ccc(F)cc3)c(-c3cc(Cl)ccc3F)nc2c1 [Compound I-520, 3-(5-chloro-2-fluorophenyl)-2-(4-fluorophenyl)-N-[3-(4H-1,2,4-triazol-3-yl)propyl]quinoxaline-6-carboxamide]	89	< 100	1	–	–	–
O=C(/C=C/c1cccnc1)NCCCCC1CCN(C(=O)c2ccccc2)CC1 [FK866]	–	–	–	selectively block proliferation and induce apoptosis of activated T cells	efficacious	ameliorated the manifestations of experimental autoimmune encephalomyelitis
